Test results: PMC8443589, “Modelling human liver fibrosis in the context of non-alcoholic steatohepatitis using a microphysiological system” (Communications Biology, 2021)

Legend:
[1] = system: liver MPS NASH model (PHH, KC and HSC co-cultures); assay: Cue study: pro-fibrotic biomarkers TIMP-1, pro-collagen 1, fibronectin (Fig 5c); format: cell-based, human; settings: for Fibronectin (Fold change in cytokine production compared to control) / Pro-collagen 1 (Fold change in cytokine production compared to control) / TIMP-1 (Fold change in cytokine production compared to control): fat medium + cue
From the text: Assessment of gene expression changes was supplemented by assessment of the secretome produced by NASH microtissues in the MPS after exposure to the various cues. Increased pro-inflammatory cytokine secretion is a defining characteristic in NASH patients, so we conducted a Luminex cytokine array covering 42 different biomarkers, cytokines and chemokines secreted into the culture media of the different microtissues at multiple time points. We consistently detected 27 out of the 42 biomarkers and observed that there was differential expression of cytokines and chemokines driven by the different cues applied to the micro-tissue (Fig. 5a, b). The LPS cue and the presence of higher NPC numbers were responsible for driving the largest increase in cytokine and chemokine release, with the largest increases in cytokines measured on day 14 (Fig. 5b). […] Similarly, to the cytokine production, these changes were not further enhanced by combining cues, as all the cue combinations containing TGFβ had the highest expression (Supp. Fig. 17c).
Fig. 5 Systems biology interrogation of liver MPS NASH model to determine physiologically relevant cues that promote soluble biomarker changes to mimic advanced NASH disease state. PHH, KC and HSC co-cultures were cultured in the MPS platform under a variety of conditions for 14 days to test number of NPCs, presence of fat, fructose, cholesterol, LPS and TGFβ for effects on the soluble biomarker profile of the liver MPS NASH model. Expression of biomarkers, cytokines and chemokines were compared, all concentrations were normalised by Z-transformation to allow comparison and shown relative to mean for each marker (white = not detected). a Cytokine expression compared with varying levels of NPCs; b for the high NPC group in the presence of additional cues; c Expression of pro-fibrotic biomarkers with varying NPC content and with additional varying cues in high NPC condition (additional data in Supp. Fig. 17). d Graphical summary of the changes that occur in the NASH model in the presence of Fat and Fat + TGFβ. All data were generated from a minimum of three independent replicate samples per condition.
The MPS LC12 plates consists of 12 individual bioreactors that contain pneumatically driven micro-pumps to recirculate cell culture medium through a collagen-coated scaffold. Cells were cultured using the protocol previously described[20],[21], but briefly, PHH were seeded at a density of 6 × 10^5 viable cells per well on the LC12 plates with each NPC population (KC and/or HSC) at a density of 6 × 10^4 viable cells per well. Each well contained a final volume of 1.6 mL of medium per well and maintained under a flow rate of 1.0 µL/s. Cells were seeded in Williams E medium containing primary hepatocyte thawing and plating supplements (Life Technologies, USA) and cultured initially under downward flow for 8 h before the flow was automatically reversed to upward flow for the next 16 h of culture. Microtissues were then cultured in either HEP-Lean or HEP-Fat medium, both media’s are proprietary to CN Bio Innovations Ltd. The HEP-Fat medium is a derivative of the HEP-LEAN medium and contains a mixture of saturated and unsaturated FFAs, as well as physiologically relevant quantities of insulin and sugars. Complete media changes were performed on all wells every 48–72 h. For certain experiments, the media was supplemented with additional additives from day 4 onwards: 1 ng/ml LPS (lipopolysaccharides from Escherichia coli O111:B4) (Sigma Aldrich, UK), 1 ng/ml recombinant TGF beta 1 protein (Abcam, UK); 500 µM Fructose (Sigma Aldrich, UK), 50 µg/ml Cholesterol (Sigma Aldrich, UK). […]

[2] = system: liver MPS NASH model (PHH, KC and HSC co-cultures); assay: Cue study: albumin production (ELISA); format: cell-based, human

TGFβ: recombinant TGF beta 1 protein (Abcam), 1 ng/ml cue
Fibronectin (Fold change in cytokine production compared to control) ([1]; Day 6, high NPC): 1.218 | Pro-collagen 1 (Fold change in cytokine production compared to control) ([1]; Day 6, high NPC): 1.954 | TIMP-1 (Fold change in cytokine production compared to control) ([1]; Day 6, high NPC): 2.132 | Fibronectin (Fold change in cytokine production compared to control) ([1]; Day 11, high NPC): 1.379 | Pro-collagen 1 (Fold change in cytokine production compared to control) ([1]; Day 11, high NPC): 1.672 | TIMP-1 (Fold change in cytokine production compared to control) ([1]; Day 11, high NPC): 1.0946 | Fibronectin (Fold change in cytokine production compared to control) ([1]; Day 14, high NPC): 0.05285 | Pro-collagen 1 (Fold change in cytokine production compared to control) ([1]; Day 14, high NPC): 0.4105 | TIMP-1 (Fold change in cytokine production compared to control) ([1]; Day 14, high NPC): 0.9486 | pro-collagen 1, fibronectin and TIMP-1 expression ([1]; cue study): most significant increases | Albumin production [2]: reduced albumin production
